Among the test systems are A549; ACHN; BT-549; DU-145; HCC 2998; MOLT-4; NCI-H522; NCI/ADR-RES; OVCAR-4; OVCAR-5; OVCAR-8; PC-3; SF-268; SF-295; SNB-19; TK-10; UACC-257; A498; Hs-578T; RXF 393.
What all share (assay): DTP human tumour cell line panel, 48 h

Molecules are shown by their SMILES.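 1) Cells in 96-well plates. 2) Compound, 48 h, 5 concentrations. 3) Linear interpolation between surrounding doses. 4) Unreached endpoint = highest concentration. The concentration for 50% growth inhibition is given as GI50.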 Active and inactive are the calls of the source. Rule as the data show it: active = GI50 up to about 1.1 µM and inactive = higher.

A word on the GI50: it is the concentration giving 50% growth inhibition. As to `CC(C)(C)CNC(=O)NCn1cc(-c2ccccc2)nn1`, the GI50 in the assay with A549, in the assay with ACHN, with BT-549, in the assay on DU-145, in the assay on HCC 2998 and with MOLT-4 was > 100 µM (inactive) in each case. The GI50 in the assay on NCI-H522 was > 100 µM (inactive); with NCI/ADR-RES, > 100 µM (inactive); in the assay with OVCAR-4, > 10 µM (inactive); in the assay on OVCAR-5, > 100 µM (inactive); with OVCAR-8, > 100 µM (inactive); in the assay on PC-3, > 100 µM (inactive). The GI50 with SF-268, in the assay with SF-295, in the assay with SNB-19, in the assay on TK-10 and in the assay on UACC-257 was > 100 µM (inactive) throughout.

Turning to `O=c1[nH]n(Cc2ccccc2Cl)c2ccccc12`, the GI50 in the assay on A498, in the assay on A549, with ACHN, in the assay with DU-145, with HCC 2998 and with Hs-578T was > 100 µM (inactive) in each case. In addition, the GI50 in the assay on MOLT-4, in the assay on NCI-H522, in the assay on NCI/ADR-RES, in the assay on OVCAR-4, in the assay with OVCAR-5 and with OVCAR-8 was > 100 µM (inactive) throughout. The GI50 in the assay on PC-3 is > 100 µM (inactive); with RXF 393, > 10 µM (inactive); in the assay on SF-268 it was 40.6 µM (inactive); in the assay with SNB-19, > 100 µM (inactive); in the assay with TK-10, > 100 µM (inactive); with UACC-257, 38.9 µM (inactive).

With `CC12CCC(C(=O)O1)C(C)(C)O2` (stereo not drawn), the GI50 in the assay with A498, with A549, in the assay on ACHN, in the assay on BT-549, in the assay on HCC 2998 and in the assay with Hs-578T was > 100 µM (inactive) each time. In addition, the GI50 with MOLT-4, with NCI-H522, in the assay with NCI/ADR-RES, in the assay on OVCAR-4, with OVCAR-5 and in the assay with OVCAR-8 was > 100 µM (inactive) throughout. The GI50 in the assay with PC-3, with RXF 393, with SF-268, with SF-295, in the assay on SNB-19 and in the assay with TK-10 was > 100 µM (inactive) throughout. The GI50 in the assay on UACC-257 was > 100 µM (inactive).

Turning to `C1=CC2C(C3CN(c4ccccc4)N=C13)C1C3C4C=CC21C=CC43` (stereo not drawn), the GI50 in the assay on A498, in the assay with A549, in the assay on ACHN, with BT-549, in the assay with HCC 2998 and in the assay with Hs-578T was > 100 µM (inactive) throughout. Moreover, the GI50 with MOLT-4 was > 100 µM (inactive); in the assay on NCI-H522, 97.5 µM (inactive); with NCI/ADR-RES, > 100 µM (inactive); with OVCAR-4, > 78.5 µM (inactive); in the assay with OVCAR-5, > 100 µM (inactive); in the assay with OVCAR-8 it was > 95.3 µM (inactive). In addition, the GI50 with PC-3 is > 100 µM (inactive); in the assay with RXF 393, 0.172 µM (active); with SF-268, > 100 µM (inactive); with SF-295, > 100 µM (inactive); in the assay on SNB-19, > 100 µM (inactive); with TK-10 it was > 100 µM (inactive). The GI50 in the assay on UACC-257 was > 100 µM (inactive).
